Measured values reported in patent publication US10829506B2, “Amino- or ammonium-containing sulfonic acid, phosphonic acid and carboxylic acid derivatives and their medical use” (GRI Bio, Inc., priority 2011, dated 2020).
pIC50: −log10 of the molar value.

Assays:
[1] = Body weight and toxic side-effects in the DTH study; format: in vivo, mice; conditions: oral
Description: Three hours after the last dose, the antigen challenge was performed on the ears as described above. Dexamethasone was given at 1 mg/kg orally by gavage 3 h before sensitization and once daily with the final dose given 3 h prior to antigen challenge (a total of 7 administrations). All administrations were given in a volume of 10 mL/kg.
Such high dosing (overdose) is, however, not suitable for treatment of humans due to severe side effects of the corticosteroid and was only used to validate the responsiveness of the model.

[2] = system: RBL-2H3 cells; test: Inhibition of mast cell degranulation (β-hexosaminidase release); format: cell-based, rat; conditions: Rattus norvegicus, RBL-2H3 cells sensitized with anti-DNP IgE, triggered with DNP-HSA, 1 h preincubation
Text: Mast cells are key effector cells involved in allergic and inflammatory diseases, and the Rat Basophilic Leukemia clone 2H3 (RBL-2H3) cell line is a commonly used model of allergen dependent immune modulator release (degranulation) in mast cells. On their surface, they express the high affinity receptor for IgE (FcεRI). Upon binding of antigen-specific IgE to the receptor, cells become sensitized to the IgE specific antigen (allergen). When IgE-sensitized cells then encounter multivalent antigen, the antigen clusters IgE-FcεRI complexes and initiates a signal transduction cascade that leads to degranulation, that is, the release of inflammatory mediators, such as cytokines, eicosanoids, histamine and enzymes. The assay can be used as a screening method to identify immune-modulating compounds, in particular compounds useful in the medical management of allergic and inflammatory diseases and asthma, β-hexosaminidase was previously shown to be released with the same kinetics as histamine (Schwartz et al., J Immunology; 123:1445-1450 (1979)), thus offering a simple means to monitor degranulation. The RBL-2H3 cell line has been successfully used to identify compounds with anti-allergic activity (Choo et al. Planta Med., 69:518-522 (2003)).
Cell Culture: RBL-2H3 cells obtained from the German Collection of Microorganisms and Cell Cultures (ACC312) (Braunschweig, Germany) were maintained in 70% Minimum Essential Medium with Earle's Salts, 20% RPMI 1640 Medium, 10% FBS and 2 mM l-glutamine in 95% air/5% CO2 at 37° C. and routinely checked for mycoplasma contamination. Cells were passaged every 3-4 days; after washing cells once with 35 ml PBS cells were incubated 8 min with 5 ml 0.05% Trypsin-EDTA solution at 37° C. Cells were removed from the incubator, 15 ml culture medium was added and cells were resuspended by repeated pipetting.
Cell seeding: cells were harvested with Trypsin-EDTA as described and 50-100 μl cell suspension seeded Into Costar CellBind 24 well cluster plates (no. 3337). Plates were kept for 30 min at RT under the sterile hood before being transferred to the incubator. Cells were used within one or two days after seeding.
For sensitization, cells for immediate use were sensitized 6-12 h after plating; cells to be used the following day were sensitized 26-38 h after plating. Culture plates were removed from the incubator and checked for cell growth and contamination. The medium was discarded and cells were sensitized with anti-DNP IgE (0.4 μg/ml) in 0.4 ml culture medium overnight. Following overnight sensitization, cells were washed with 0.8 ml pre-warmed TyB and 0.38 ml test compound or vehicle control (supplemented or not with 1% FBS) were added to duplicate wells. Samples were adjusted to contain 1% vehicle for test compounds dissolved in organic solvents. Cells were incubated for 1 h at 37° C. At the end of the incubation period, cells were routinely stimulated with 20 μl DNP-HSA (2 μg/ml; final concentration 0.1 μg/ml) diluted in TyB and cells were incubated for 15 min at 37° C. Alternatively, cells were stimulated with 20 μl […] (final concentration 0.25 μM) or 20 nM […] (final concentration 0.25 μM), both in the absence or presence of 20 nM PMA (final concentration).
Plates were removed from the incubator and immediately centrifuged at 4° C. for 5 min at 250×g and transferred to an ice bath. Aliquots of supernatants, 25 μl, were transferred to 96-well plates. Remaining supernatant was aspirated from control wells and cells were lysed in […] lysis buffer for 5 min at RT on an orbital shaker at 450 rpm under non-sterile conditions. After lysis, 25 μl aliquots of lysates were transferred to 96-well plates.
MUG substrate solution, 100 μl, were added to supernatant and lysate samples and plates were incubated 30 min at 37° C. The reaction was terminated by addition of 150 μl stop solution. Fluorescence was measured at 365 nm excitation and 440 nm emission wavelengths. […]

[3] = system: RBL-2H3 cells; test: Maximum tolerated concentration (cytotoxicity by lactate dehydrogenase release); format: cell-based, rat
Text: A commercially available cytotoxicity test was used (Promega Cytotox-One cat. #67891).
The safety index (SI) of a test compound Is the ratio between the maximum tolerated concentration and the 1C50 and is used as a measure of the relative safety of the test compound.

CCCCCCCCCCCCCC[N+](C)(C)CCCS(=O)(=O)[O-] [Compound 1a, 3-(N,N-Dimethylmyristylammonio)-Propanesulfonate]
Toxic side-effects during the course of the study [1]: no toxic side-effects
pIC50 [2]: 5.49
MTC (maximum tolerated concentration) ([3]; highest concentration not causing cytotoxicity, LDH release): 100 µM
SI (safety index, ratio MTC/IC50) ([3]; ratio between maximum tolerated concentration and IC50): 31.3
